For one data set, the target named is TRKa (Homo sapiens (Human), UniProt P04629). In words: Kinase inhibitory activity (Caliper mobility shift), TRKa. The format is biochemical. On the procedure: (§1) […] (Shanghai) Co., Ltd. was commissioned to complete the testing example. […] 3.1 A tested compound was accurately weighed and dissolved in 100% DMSO to prepare into a 10 mM solution. […] 3.2.3 A kinase solution of 2.5 times final concentration was prepared with 1×kinase buffer. […] 3.2.5 The reaction plate was shaken and mixed evenly, and then incubated at room temperature for 10 minutes. 3.2.6 Mixed solutions of ATP and kinase substrate 22 of 5 times and 3 times final concentrations were prepared with 1×kinase buffer. 3.2.7 15 μL of mixed solution of ATP and substrate of 5 times or 3 times final concentration was added. 3.2.8 The 384-well plate was centrifuged at 1,000 rpm for 30 seconds, shaken and mixed evenly, and then incubated at room temperature for corresponding time. 3.2.9 The kinase reaction was terminated. 3.2.10 A conversion rate was read by the microplate reader Caliper EZ Reader. Calculation Formula Inhibition rate %=(conversion rate % maximum-conversion rate % sample)/(conversion rate % maximum-conversion rate % minimum)×100 wherein the conversion rate % sample was: a reading number of a conversion rate of a sample; the conversion rate % minimum was: an average value of the negative control well, which represented a reading number of a conversion rate without an enzyme activity well; and the conversion rate % maximum was: an average value of a ratio of the positive control well, which represented a reading number of a conversion rate without a compound inhibition well.

The nature of data set [1]: In-vivo pharmacokinetic study on SD rats, intravenous and oral. The following applies: rat, plasma; for AUC(0-t): read-out: Area under curve AUC(0-t); for Cmax: read-out: Concentration to peak Cmax; for half-life: read-out: Half-life period t1/2 (converted); for bioavailability: read-out: Bioavailability F %. On the procedure:
Species: SD rats, SPF level. Source: the animals were transferred from the animal repository (999M-017) of the experimental institution of Shanghai Sippe-Bk Lab Animal Co., Ltd. Quantity: 3 rats for each formulation.
2.1 An appropriate amount of test samples were accurately weighed, added to a final volume of 5% DMSO, 10% polyethylene glycol-15 hydroxystearate and 85% normal saline, and fully mixed by vortex or ultrasound to obtain 0.2 mg/mL administration solution for intravenous administration.
2.2 An appropriate amount of test samples were accurately weighed, added to a final volume of 5% DMSO, 10% polyethylene glycol-15 hydroxystearate and 85% normal saline, and fully mixed by vortex or ultrasound to obtain 0.5 mg/mL administration solution for oral and intragastric administration.
Weighing was carried out before administration, and the dosage was calculated according to the weight. Intravenous administration, or oral intragastric administration was carried out.
The blood sampling was carried out before administration and 0.083 hour, 0.25 hour, 0.5 hour, 1 hour, 2 hours, 4 hours, 6 hours, 8 hours, and 24 hours after administration.
The blood sampling was carried out through a jugular vein or other suitable modes, and about 0.20 mL of each sample was collected. Heparin sodium was used for anticoagulation, the collected blood samples were placed on ice, and plasma was centrifuged within 2 hours (the centrifugation was carried out by a centrifugal force of 6,800 g for 6 minutes at 2° C. to 8° C.). The collected plasma samples were stored in a refrigerator at −80° C. before analysis, and the remaining plasma samples after analysis were continuously stored in the refrigerator at −80° C. for temporary storage.
A plasma concentration of a test subject was detected, a plasma concentration-time curve was drawn, and BLQs were all recorded as 0. […] According to blood concentration data at different time points, the pharmacokinetic parameters such as AUC(0-t), T1/2 and Cmax were calculated by WinNonlin.

In a further data set the target is TRKC(G623R) (Homo sapiens (Human), UniProt Q16288, G623R). In words: Kinase inhibitory activity (Caliper mobility shift), TRKC(G623R). The data set is classed as biochemical. As to the method:
Sundia Meditech (Shanghai) Co., Ltd. was commissioned to complete the testing example.
3.1 A tested compound was accurately weighed and dissolved in 100% DMSO to prepare into a 10 mM solution.
250 nL of the compound of 100 times final concentration was transferred to a reaction plate OptiPlate-384F by a dispenser Echo 550.
3.2.3 A kinase solution of 2.5 times final concentration was prepared with 1×kinase buffer.
3.2.4 10 μL of kinase solution of 2.5 times final concentration was added into a compound well and a positive control well respectively; and 10 μL of 1×kinase buffer was added into a negative control well.
3.2.5 The reaction plate was shaken and mixed evenly, and then incubated at room temperature for 10 minutes.
3.2.6 Mixed solutions of ATP and kinase substrate 22 of 5 times and 3 times final concentrations were prepared with 1×kinase buffer.
3.2.7 15 μL of mixed solution of ATP and substrate of 5 times or 3 times final concentration was added.
3.2.8 The 384-well plate was centrifuged at 1,000 rpm for 30 seconds, shaken and mixed evenly, and then incubated at room temperature for corresponding time.
3.2.9 The kinase reaction was terminated.
3.2.10 A conversion rate was read by the microplate reader Caliper EZ Reader.
Calculation Formula Inhibition rate %=(conversion rate % maximum−conversion rate % sample)/(conversion rate % maximum−conversion rate % minimum)×100
wherein the conversion rate % sample was: a reading number of a conversion rate of a sample; the conversion rate % minimum was: an average value of the negative control well, which represented a reading number of a conversion rate without an enzyme activity well; and the conversion rate % maximum was: an average value of a ratio of the positive control well, which represented a reading number of a conversion rate without a compound inhibition well.
Fitting of dose-effect curve: a log value of concentration was used as an X axis, a percentage inhibition rate was used as a Y axis, and the dose-effect curve was fitted by a log (inhibitor) vs. response-variable slope of the analysis software GraphPad Prism 5 (four-parameter model fitting), so as to obtain an IC50 value of each compound on enzyme activity.

Another data set has as its target TRKA(G595R) (Homo sapiens (Human), UniProt P04629, G595R). In words: Kinase inhibitory activity (Caliper mobility shift), TRKA(G595R). The format is biochemical. On the procedure:
as §1

Where two headings read alike, the source gives them in different places.

Chain of TRKC(G623R) (Q16288 32-839 G623R): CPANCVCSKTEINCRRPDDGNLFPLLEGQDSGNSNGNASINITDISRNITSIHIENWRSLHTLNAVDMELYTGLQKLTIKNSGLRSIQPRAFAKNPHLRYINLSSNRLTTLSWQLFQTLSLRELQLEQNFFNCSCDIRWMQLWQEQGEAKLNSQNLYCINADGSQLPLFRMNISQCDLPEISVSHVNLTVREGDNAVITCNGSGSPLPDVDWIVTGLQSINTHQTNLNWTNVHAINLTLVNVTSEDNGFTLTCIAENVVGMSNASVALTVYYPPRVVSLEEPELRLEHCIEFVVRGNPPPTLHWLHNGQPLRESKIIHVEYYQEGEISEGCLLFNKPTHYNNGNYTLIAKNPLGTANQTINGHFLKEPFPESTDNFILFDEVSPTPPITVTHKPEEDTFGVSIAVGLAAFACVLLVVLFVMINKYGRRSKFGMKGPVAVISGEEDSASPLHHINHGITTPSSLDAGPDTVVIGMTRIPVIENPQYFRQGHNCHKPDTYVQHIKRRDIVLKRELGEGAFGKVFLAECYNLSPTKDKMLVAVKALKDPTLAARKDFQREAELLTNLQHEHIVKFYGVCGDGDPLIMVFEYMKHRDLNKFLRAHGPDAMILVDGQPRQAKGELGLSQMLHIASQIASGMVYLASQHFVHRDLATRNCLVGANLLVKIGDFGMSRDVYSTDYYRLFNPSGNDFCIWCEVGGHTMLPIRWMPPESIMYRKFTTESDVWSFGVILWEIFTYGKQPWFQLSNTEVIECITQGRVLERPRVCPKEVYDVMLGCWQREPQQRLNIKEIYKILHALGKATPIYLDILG
Chain of TRKa (P04629 33-796): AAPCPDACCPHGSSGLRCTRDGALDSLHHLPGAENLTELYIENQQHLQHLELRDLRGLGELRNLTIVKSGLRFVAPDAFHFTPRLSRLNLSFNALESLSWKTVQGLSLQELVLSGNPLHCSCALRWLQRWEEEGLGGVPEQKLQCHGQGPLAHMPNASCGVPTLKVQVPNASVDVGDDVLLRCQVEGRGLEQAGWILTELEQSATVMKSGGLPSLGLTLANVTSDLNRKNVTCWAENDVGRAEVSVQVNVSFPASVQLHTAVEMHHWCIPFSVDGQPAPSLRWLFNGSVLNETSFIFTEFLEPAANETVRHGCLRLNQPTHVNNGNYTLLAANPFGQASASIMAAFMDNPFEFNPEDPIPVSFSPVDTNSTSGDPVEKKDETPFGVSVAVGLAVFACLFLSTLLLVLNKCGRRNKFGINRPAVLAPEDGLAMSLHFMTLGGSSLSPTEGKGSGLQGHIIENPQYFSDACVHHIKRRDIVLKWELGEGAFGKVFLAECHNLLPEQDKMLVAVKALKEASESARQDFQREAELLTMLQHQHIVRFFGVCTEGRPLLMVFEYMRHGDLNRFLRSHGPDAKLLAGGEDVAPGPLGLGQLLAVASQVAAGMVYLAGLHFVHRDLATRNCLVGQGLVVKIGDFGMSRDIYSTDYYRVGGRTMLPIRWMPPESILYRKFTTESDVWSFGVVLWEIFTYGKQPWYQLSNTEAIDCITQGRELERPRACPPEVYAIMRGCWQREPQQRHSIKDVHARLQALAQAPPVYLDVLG
Chain of TRKA(G595R) (P04629 33-796 G595R): as the sequence (P04629 33-796) above, with G563R counted along it

Broadly, the IC50 is the concentration that inhibits the measured activity by half. By AUC(0-t) is commonly meant exposure summed from dosing to a finite time, without extrapolation to infinity. As for `O=C1N[C@H]2C[C@H](C2)Oc2ncc(F)cc2[C@H]2CCCN2c2ccn3ncc1c3n2` (stereo in doubt) [Positive control 1, reference compound], at TRKa, the IC50 came to 0.39 nM. For the same molecule, in data set [1] (IV @ 1 mg/kg), the AUC(0-t) was 605 ng·h/mL, the Cmax was 1160 nM and the half-life is 0.45 h. Also, in data set [1] (PO @ 5 mg/kg), the AUC(0-t) is 2270 ng·h/mL, the bioavailability is 75.1%, the Cmax was 932 nM and the half-life was 0.68 h. Moreover, the IC50 on TRKC(G623R) is 1.7 nM. In addition, the IC50 at TRKA(G595R) was determined as 0.72 nM.
`O=C1N[C@H]2C[C@H](C2)Oc2ncc(F)cc2[C@H]2CCCN2c2nc3c1cnn3cc2F` [Example 2, ((1^3E,1^4E,2^2R,5^1S,5^3S)-1^6,3^5-difluoro-4-oxa-6-aza-1(5,3)-pyrazolo[1,5-a]pyrimidine-3(3,2)-pyridine-2(1,2)-pyrrolidine-5(1,3)-cyclobutancycloheptan-7-one]: in data set [1] (IV @ 1 mg/kg), the AUC(0-t) was determined as 422 ng·h/mL, the Cmax came out at 875 nM and the half-life was 0.33 h. In addition, in data set [1] (PO @ 5 mg/kg), the exposure AUC(0-t) was determined as 1500 ng·h/mL, the bioavailability was 70.9%, the Cmax was determined as 527 nM and the half-life is 0.55 h. The IC50 on TRKC(G623R) was 1.8 nM.
On to `C[C@H]1Nc2nc3c(cnn3cc2F)C(=O)N[C@H]2C[C@H](C2)Oc2ncc(F)cc21` [Example 3, (3^1S,3^3S,6^3E,6^4E,8R)-1^5,6^6-difluoro-8-methyl-2-oxo-4,7-diaza-6(3,5)-pyrazolo[1,5-a]pyrimidine-1(2,3)-pyridine-3(1,3)-cyclobutylcyclooctane-5-one], for which, at TRKa, the IC50 came out at 0.36 nM. In addition, in data set [1] (IV @ 1 mg/kg), the AUC(0-t) was determined as 1480 ng·h/mL, the Cmax was determined as 573 nM and the half-life is 5 h. Moreover, in data set [1] (PO @ 5 mg/kg), the AUC(0-t) turned out to be 8770 ng·h/mL, the bioavailability was determined as 119%, the Cmax came out at 1300 nM and the half-life was 3.01 h. At TRKC(G623R), the IC50 amounted to 1.5 nM. The half-maximal inhibitory concentration (IC50) at TRKA(G595R) is 0.89 nM.
Take `C[C@H]1Nc2ccn3ncc(c3n2)C(=O)N[C@H]2C[C@H](C2)Oc2ncc(F)cc21` [Positive control 2, reference compound]: at TRKa, the IC50 is 0.43 nM. In data set [1] (IV @ 1 mg/kg), the AUC(0-t) came to 1010 ng·h/mL, the Cmax worked out at 781 nM and the half-life is 4.54 h. In data set [1] (PO @ 5 mg/kg), the AUC(0-t) amounted to 3350 ng·h/mL, the bioavailability was found to be 66.3%, the Cmax was 633 nM and the half-life was 3 h. Also, the IC50 at TRKC(G623R) stood at 1.4 nM. The IC50 on TRKA(G595R) worked out at 0.97 nM.

The values above are taken from US12428433B2, “Fluorine-containing heterocyclic derivatives with macrocyclic structure and use thereof” (ScinnoHub Pharmaceutical Co., Ltd, priority 2019, dated 2025).
